Laboratory results reported in US11318141B2, “Methods and compositions related to STK1-targeted small molecules as antibiotic resistance breakers” (Ohio State Innovation Foundation, priority 2017, dated 2022).
≈ marks a conversion by molar mass, not a printed value. Where “and” joins values, the source holds several entries; their conditions need not be identical. Equal values may be shown once. Read-outs that look alike come from different tables or passages of the source.

Experiments:
[1] = tested on: S. aureus MW2ΔSTK1 mutant; assay: E-test antibiotic susceptibility (MIC), Muller-Hinton agar; type: cell-based; conditions: Staphylococcus aureus
[2] = tested on: S. aureus MW2ΔSTP1 mutant; assay: as above; type: cell-based; conditions: Staphylococcus aureus
[3] = tested on: S. aureus MW2-WT; assay: microbe, parasite or virus in culture; type: cell-based, Staphylococcus aureus; conditions: for MIC / susceptibility pattern for MW2 in the presence vs absence of Inh2-B1: E-test, 50 μM Inh2-B1
[4] = tested on: S. aureus MW2-WT; assay: S. aureus mouse septicemia model, therapeutic study; type: in vivo, CD-1 mice; conditions: only Cefotaxime 10 mg/kg
Protocol: The virulence potential of the wild-type S. aureus MW2 wild-type and corresponding MW2ΔSTK1 and MW2ΔSTP1 mutants was assessed using the mouse-septicemia model. CD-1 mice (5 weeks old, 20-22 g. Charles River Laboratories, ten female mice/group and housed in a group of 5 mice/cage) were lightly anesthetized with isoflurane and injected retro-orbitally with the S. aureus MW2 or isogenic MW2Δstk1 mutant (4×10^8 CFU/0.1 ml of PBS). […] For therapeutic studies, the animals were first challenged with MW2-WT strain as described above and subsequently administered with antibiotic and/or small molecule compounds. The latter was started 4 h after the challenge and subsequently 12 h apart for 4 days post infection. Thus, Inh2-B1 (5 mg/kg body weight in 0.3 ml vehicle buffer), Ceftriaxone (10 and 25 mg/kg body weight in 0.3 ml vehicle buffer). Cefotaxime (10 mg/kg body weight), combination of Ceftriaxone (10 mg and 25 mg/kg body weight in 0.3 ml vehicle buffer) or Cefotaxime (10 mg/kg body weight) with Inh2-B1 (5 mg/kg body weight in 0.3 ml vehicle buffer), or 0.3 ml of vehicle-buffer (50 mM Tris/HCl, pH 8.8, 1.67% [v/v] DMSO). Early removal and euthanasia criteria were applied to all experimental mice showing penultimate sign(s) of the unrecoverable stage of illness, including ruffled skin with a hunch back, loss of more than 20% of body mass as compared to unchallenged mice receiving mock treatment, dyspnea, and labored gasping. All experiments were performed twice. Data were combined, and percentage survival in each group was statistically evaluated by the Log-Rank test (Kaplan-Meier) using the GraphPad Prism 6 software. P<0.05 was treated as a significant difference. On Day 3 P.I., 3-6 mice from different groups receiving treatment with a single antibiotic or combination therapy were euthanized and sacrificed, and kidneys were […] for determining the bacterial load, which was determined by counting the colony forming units in the homogenized tissue in sterile PBS buffer.

[5] = tested on: S. aureus MW2-WT; assay: Time-to-kill assay (OD and CFU counts over 16 h), broth dilution; type: cell-based, Staphylococcus aureus; conditions: only 50 μM Inh2-B1, only 1.5 μM Ceftriaxone (1 μg/ml) or only 3 μM Cefotaxime (1 μg/ml), 16 h
Protocol: FIGS. 4A-F show. […] Optical Density and corresponding Colony forming units of (C and D) MW2-WT and (E and F) MW2ΔSTK1 cultures in the presence or absence 50 μM Inh2-B1, 1.51 μM (1 μg/ml) Ceftriaxone, 2.125 μM (1 μg/ml) Cefotaxime, and combination of Inh2-B1 plus Ceftriaxone, and Inh2-B1 plus Cefotaxime. The experiments were carried out as described in the Materials and Method section using Muller-Hinton broth and seeded with 4×10^6 CFUs of S. aureus MW2-Wild type or MW2ΔSTK1 strains per well. Each data points represent Mean±S.D. P values of significance (**=<0.01, ***=<0.001) were determined using the t-test with Welch's corrections. NS—Not significant.
(§1) Subsequently, the susceptibility of S. aureus MW2 strain to Ceftriaxone, Cefotaxime, Inh2, and Inh2-B1 was confirmed by the CLSI recommended serial dilution method using Muller Hinton broth. Minimum bactericidal activity (MBC) was measured using Muller-Hinton agar. Changes in the MBC of Ceftriaxone/Cefotaxime in the presence of serially diluted Inh2-B1 was determined in two steps. Initial screening was carried out using the Checkerboard method using Muller-Hinton agar (FIG. 15). […] Subsequent time to kill assays were carried out using 50 μM Inh2-B1 and Ceftriaxone. Cefotaxime (1 μg/ml) in a final volume of 250 μl using a sterile 96-well (U-bottom) microtiter plate over a period of 16 h at 37° C. under constant rotation (120 rpm). Optical density and corresponding CFU counts were measured at every two-hour interval up to 8 hours with a final overnight reading at the end of incubation period. CFU counts were measured using appropriate dilution of 10 μl of properly mixed samples at each time interval. All experiments were performed in three biological replicates and the statistical analysis of the results obtained at each time point was carried out by the non-parametric t-test with Welch's correction using GraphPad Prism 6 software.

[6] = tested on: S. aureus MW2 wild-type; assay: Checkerboard titration end-point bactericidal assay (MBC), Muller-Hinton agar; type: cell-based, Staphylococcus aureus; conditions: for MBC: Staphylococcus aureus, MW2WILDTYPE
Protocol: FIGS. 15A-15B show checkerboard assays for determining bactericidal assay. Serial two-fold dilutions of 2 mM of Inh2-B1 (MW=411.58 g/mol) and (A) 3 mM ceftriaxone (MW=669.7 g/mol) were made in two separate 96-well plates in vertical (B1-B12 to H1-H2 wells) and horizontal (A2-H2 to A12-H12 wells) directions respectively. Serially diluted Inh2-B1 (100 μL) in the individual well was then mixed with the 100 μL serially diluted ceftriaxone present in the corresponding wells. The resulting various combinations of Inh2-B1 (starting from 1 mM) and ceftriaxone (starting from 1.5 mM) or cefotaxime (2.1 mM) as well as serially diluted one Inh2-B1 (B1 to H1) and ceftriaxone (A2-A12) or cefotaxime (A2-A12) were then incorporated in Muller-Hinton mini agar plates (2 mL). The agar plates were then seeded and diluted S. aureus MW2-wild-type culture equivalent to approximately 23±3 CFU. This checkerboard assay was used to determine the ideal combination of lowest concentration of Inh2-B1 and ceftriaxone that kills 99.9% of the wild-type MW2.
Since the STK1 is not essential for bacterial survival and its absence results in retardation of growth, an end-point bactericidal assay was done, employing the Checkerboard titration method followed by a time-to-kill assay using the broth dilution method. The 96-well plate-based checkerboard titration assays were performed using the fixed number of CFUs of MW2 strain, and the survival of the bacteria was measured on solid agar plates as an end-point result. […] The cut-off value to designate clinical isolates of S. aureus for antibiotics, including Ceftriaxone (TX) and Cefotaxime (CT) as susceptible, is less than 4 μg/ml (i.e., <4.8 μM of TX, and <7 μM of CT). […] CFU counts of MW2-WT grown in the presence of various concentrations of Inh2-B1 were examined over a period of 16 h. […] Similarly, it was also determined CFU counts of MW2-WT and MW2ΔSTK1 strains each grown in the absence or the presence of 50 μM of Inh2-B1 and 1.5 μM Ceftriaxone (1 μg/ml) or […] Cefotaxime (1 μg/ml) for 16 h employing the broth dilution method. […] Further, to address whether MW2 or STK1 could become refractory to a potential combined therapy, the S. aureus MW2 wild-type strain was grown in the presence of suboptimal dose of Inh2-B1 alone and combination with Ceftriaxone and Cefotaxime (25 μM Inh2-B1 and 3 μM of Ceftriaxone or 3 μM Cefotaxime) for consecutive 10 generations.
as §1, with “interval.” for “interval. All experiments were performed in three biological replicates and the statistical analysis of the results obtained at each time point was carried out by the non-parametric t-test with Welch's correction using GraphPad Prism 6 software.”

CO/N=C(\C(=O)N[C@@H]1C(=O)N2C(C(=O)O)=C(COC(C)=O)CS[C@H]12)c1csc(N)n1 [Cefotaxime] showed an MIC [1] of 4 µg/mL (≈ 8.78 µM), an MIC [2] of over 100 µg/mL and an MIC ([3]; Staphylococcus aureus, MW2WT) of over 100 µg/mL. The “time within which all challenged mice died” value [4] was 36 to 48 h, the “growth pattern of the wild-type, single agent” value [5] was “remained unaltered” and the MBC ([6]; agent alone, MW2, read-out: Minimum bactericidal concentration (MBC)) was 220 µM and 100 µg/mL. The MBC ([6]; in the presence of 50 μM of Inh2-B1, read-out: MBC for MW2 in the presence of Inh2-B1) was 27.5 µM and 12.5 µg/mL, the “concentration up to which growth of MW2 was seen” value ([6]; agent alone, further analysis) was 176 µM and the “concentration of wells with ≥1 CFU of wild-type MW2” value ([6]; checkerboard, agent alone) was at most 110 µM. For the same molecule, the “fold reduction of MBC” value ([6]; in the presence of 50 μM of Inh2-B1 vs antibiotic alone) was 8 fold.

With C[C@@H](O)[C@H]1C(=O)N2C(C(=O)O)=C(S[C@@H]3CN[C@H](C(=O)N(C)C)C3)[C@H](C)[C@H]12 [Meropenem] the “MIC / susceptibility pattern for MW2 in the presence vs absence of Inh2-B1” value [3] was “remained unaltered”.

For CC[C@H]1OC(=O)[C@H](C)[C@@H](O[C@H]2C[C@@](C)(OC)[C@@H](O)[C@H](C)O2)[C@H](C)[C@@H](O[C@@H]2O[C@H](C)C[C@H](N(C)C)[C@H]2O)[C@](C)(O)C[C@@H](C)C(=O)[C@H](C)[C@@H](O)[C@]1(C)O [Erythromycin], the “MIC / susceptibility pattern for MW2 in the presence vs absence of Inh2-B1” value [3] was “remained unaltered”.
